Measurements published in PubChem BioAssay AID588764 (Broad Institute, 2011).
Inconclusive results are not listed. Calls of active or inactive are those of the source. No rule for the calls is given here.

Molecular target: Histone acetyltransferase RTT109 (Candida albicans (strain SC5314 / ATCC MYA-2876)) (UniProt Q5AAJ8)
Test: C. albicans Rtt109 HAT inhibition curves – biochemical, cherry-picked hits, plate reader, dose response (AID 588764);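 as to activity change, negative = inhibition: 0% = neutral control wells and -100% = no enzyme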
Settings: Rtt109/Vps75 HAT activity; for activity change, negative = inhibition: at 19.5 µM (top of the series)

Sequence of Histone acetyltransferase RTT109 (Candida albicans (strain SC5314 / ATCC MYA-2876)) (Q5AAJ8 whole entry, looked up): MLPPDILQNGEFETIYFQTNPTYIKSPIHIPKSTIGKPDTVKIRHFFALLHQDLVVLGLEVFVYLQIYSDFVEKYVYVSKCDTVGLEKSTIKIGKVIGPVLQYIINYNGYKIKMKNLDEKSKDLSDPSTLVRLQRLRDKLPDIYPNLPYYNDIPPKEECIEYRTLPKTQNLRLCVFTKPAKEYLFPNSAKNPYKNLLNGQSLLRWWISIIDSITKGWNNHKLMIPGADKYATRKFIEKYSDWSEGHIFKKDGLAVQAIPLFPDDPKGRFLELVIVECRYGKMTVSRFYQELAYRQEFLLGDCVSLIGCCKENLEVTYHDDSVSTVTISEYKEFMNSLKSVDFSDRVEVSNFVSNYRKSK

Row | SMILES | AC50 [µM] | activity change, negative = inhibition
1 | CC[C@@H](C)[C@H](NC(=O)OC(C)(C)C)c1nnc(S(=O)(=O)Cc2cc(C)ccc2C)o1 | 12.6 | –
2 | COc1ccccc1C(=O)Nc1ccc(OCC(=O)N2CC(C)CC(C)C2)cc1 (stereo not drawn) | – | inactive
3 | Cc1[nH]n(-c2ccccc2)c(=O)c1C=NC1CCCCC1 | – | inactive
4 | O=C(CCn1c(=O)c2ccccc2n(Cc2cccc([N+](=O)[O-])c2)c1=O)N1CCc2ccccc2C1 | – | inactive
5 | Cc1ccc(NC(=O)OCc2cc(-c3ccccc3)on2)cc1 | – | inactive
6 | Cc1c(C(=O)Nc2ccc(S(=O)(=O)N(C)C3CCN(C)CC3)cc2)oc2c(Cl)cccc12 | – | inactive
7 | O=C(O)C(Cc1ccccc1)N1C(=O)/C(=C/c2cccs2)SC1=S (stereo not drawn) | – | inactive
8 | Cc1ccc(S(=O)(=O)Nc2ccc(O)c3cccnc23)cc1 | – | inactive
9 | Cc1cc(NC(=O)CCCn2nc([N+](=O)[O-])c(Cl)c2C)no1 | – | inactive
10 | Cc1ccc2sc(C)[n+](CCO)c2c1 | – | inactive
11 | CCOC(=O)c1c(CNCCN(CC)CC)n(C)c2cc(Br)c(OC)cc12 | – | inactive
12 | CCN(CC)c1ccc(C(=S)N2CCN(c3ccccc3)CC2)cc1 | – | inactive
13 | C[C@]12CC[C@@H]3c4ccc(O)c(O)c4CC[C@H]3[C@@H]1CC[C@@H]2O | 10 | –
14 | CC(C)(C)c1cc(C(c2cccnc2)N2CCN(CCO)CC2)cc(C(C)(C)C)c1O (stereo not drawn) | 9.87 | –
15 | O=C(O)c1cccc(-n2sc3ccccc3c2=O)c1 | 10.5 | –
16 | CCOC(=O)C1=C(C)N=c2s/c(=C\c3ccc(OCC(=O)O)cc3)c(=O)n2C1c1ccc(OC(C)C)cc1 (stereo not drawn) | – | inactive
17 | C[C@]12CC[C@@H]3c4cc(O)c(O)cc4CC[C@H]3[C@@H]1CC[C@@H]2O | 9.63 | –
18 | O=C(NNc1ccccc1)C(=O)NNS(=O)(=O)c1ccc(CCCl)cc1 | – | inactive
19 | CCCC(CCC)C(=O)OC[N+](C)(C)CCOC(=O)C(O)(c1ccccc1)C1CCCC1 (stereo not drawn) | – | inactive
20 | CC(C(=O)NC1C=CS(=O)(=O)C1)N1C(=O)/C(=C/c2ccc(Cl)cc2)SC1=S (stereo not drawn) | – | inactive
21 | CN1CCc2cccc3c2[C@H]1Cc1ccc(O)c(O)c1-3 | 18.4 | –
22 | CC(=O)NC(CC(=O)NC1CCCc2ccccc21)c1ccccc1 (stereo not drawn) | – | inactive
23 | CN(CC(=O)Nc1ccc(F)cc1)C(=O)COc1ccccc1Cc1ccccc1 | – | inactive
24 | CCCCCCCCCn1c2c(c(=N)c3c1CCC3)CCC2 | – | inactive

Row | SMILES | AC50 [µM] | activity change, negative = inhibition
25 | O=C(Nc1ccc(Oc2cccnc2)cc1)C1CCN(Cc2cc(Cl)ccc2O)CC1 | – | inactive
26 | Cc1ccc(C(=O)NCCNC(=O)COc2ccccc2Cl)cn1 | – | inactive
27 | COc1cccc(OC)c1C(=O)Nc1cccc(-c2ccc(N3CCOCC3)nn2)c1 | – | inactive
28 | O=C(OCc1ccc(Br)cc1)c1ccncc1 | – | inactive
29 | O=C(CNC(=O)c1ccc(Br)o1)NC12CC3CC(CC(C3)C1)C2 | – | inactive
30 | CC(=O)Nc1nnc(CCS(=O)(=O)c2ccc(C)c(C)c2)s1 | – | inactive
31 | COc1ccc2[nH]c(=O)c(CN(Cc3nnnn3Cc3ccccc3)CC3CCCO3)cc2c1 (stereo not drawn) | – | inactive
32 | O=C1OC(NC(=O)c2ccccc2)C(n2cc(CO)nn2)=C1Cl (stereo not drawn) | 5.2 | –
33 | CN(C)c1ccc(NC(=O)/C=C/c2ccccc2Cl)cc1 | – | inactive
34 | CCCCCCCCCCCCn1ccc(=N)cc1 | – | inactive
35 | COc1cccc(-c2nn(C)c3sc(C(=O)N4CCN(c5ccccn5)CC4)cc23)c1 | – | inactive
36 | O=C(C1CCCO1)N1CCN(C(=S)Nc2ccc(Cl)cc2Cl)CC1 (stereo not drawn) | – | inactive
37 | COc1ccc(/C=C2/SC(=O)N(NS(=O)(=O)c3ccccc3)C2=S)cc1OC | – | inactive
38 | O=[N+]([O-])c1ccc(Sc2cccc[n+]2[O-])c2nonc12 | 11.6 | –
39 | CCCNC(=O)Cn1sc2nc(C)cc(C)c2c1=O | 2.32 | –
40 | Cc1cccc(-n2c(O)c(/C=N/NC(=O)c3ccccc3Cl)c3ccccc3c2=O)n1 | – | inactive
41 | COc1ccc(/C=C/C(=O)O)cc1S(=O)(=O)NCc1ccco1 | – | inactive
42 | Cc1nn(C2CCS(=O)(=O)C2)c2nc(C3CC3)cc(C(=O)Nc3ccc(C(N)=O)cc3)c12 (stereo not drawn) | – | inactive
43 | Cc1cccc(NC(=O)CCN2C(=O)c3ccccc3C2=O)c1 | – | inactive
44 | CCOC(=O)c1c(C)oc2c(CC(=O)c3ccccc3)c(Cl)c(O)c(O)c12 | – | inactive
45 | Oc1cc2c(cc1O)C1c3ccc(O)c(O)c3OCC1(O)C2 (stereo not drawn) | 6.08 | –
46 | CC1CCN(c2ccccc2NC(=O)c2cc([N+](=O)[O-])ccc2N2CCOCC2)CC1 | – | inactive
47 | CC(C(=O)Nc1ccc(O)c(C(=O)O)c1)N1C(=O)/C(=C/c2cccs2)SC1=S (stereo not drawn) | – | inactive
48 | O=C(CSC1=NCCN1)Nc1cccc([N+](=O)[O-])c1 | – | inactive

Row | SMILES | AC50 [µM] | activity change, negative = inhibition
49 | COC(=O)c1ccc(N2C(=O)CC(SCC(=O)Nc3ccc(OC)cc3)C2=O)cc1 (stereo not drawn) | – | inactive
50 | O=C(NC(=S)Nc1ccc(Oc2ccccc2)cc1)c1ccc(Cl)cc1 | – | inactive
51 | CC(=O)N1CCN(c2ncnc3ccccc23)CC1 | – | inactive
52 | N#CC1=C(S)N(c2ccccc2)C(c2ccc(-c3cccc(Cl)c3)o2)NC1=O (stereo not drawn) | 11.9 | –
53 | CN(C)C(=S)SSC(=S)N(C)C | 3.4 | –
54 | CS(=O)(=O)C1=NN2C(=N)/C(=C\c3ccc(OC(=O)c4ccco4)cc3)C(=O)N=C2S1 | – | inactive
55 | COc1ccc(N2CCN(C(=O)CSc3nnc(-c4cccnc4)n3-c3ccccc3)CC2)cc1 | – | inactive
56 | COc1ccc(NC(=O)CSc2nnc(-c3ccccc3)n2N)cc1 | – | inactive
57 | O=C(O)c1ccc(-c2ccc(/C=N/Nc3ccc([N+](=O)[O-])cc3)o2)cc1 | – | inactive
58 | CCOC(=O)c1c(CSC(=N)N)n(C)c2cc(Br)c(OC(C)=O)cc12 | – | inactive
59 | CC1(C)CC2(CC(c3ccccc3F)c3ccc(O)c(O)c3O2)NC(=S)N1 (stereo not drawn) | 19.7 | –
60 | O=C(c1nnsc1S(=O)c1ccc(Cl)cc1)N1CCOCC1 (stereo not drawn) | 6.04 | –
61 | CCc1sc(C(=O)Nc2cccc(C(C)=O)c2)cc1C | – | inactive
62 | CC(/C=C1\SC(=S)N(C(C(=O)O)c2ccccc2)C1=O)=C\c1ccccc1 (stereo not drawn) | – | inactive
63 | CCCn1cc(S(=O)(=O)CC(=O)NC2CCCCC2)c2ccccc21 | – | inactive
64 | COCCN1Cc2cccc(C(=O)Nc3ccc(-c4nc5ccccc5[nH]4)cc3)c2C1=O | – | inactive
65 | CCSS(=O)(=O)c1cccc2cccnc12 | 5.16 | –
66 | CN(C(=O)CCc1nc(-c2ccccc2F)no1)c1ccccc1 | – | inactive
67 | Cc1ccc(C(=O)NCCCNC(=O)COc2ccc(C)c(C)c2)cn1 | – | inactive
68 | CS(=O)(=O)c1ncc(Cl)c(C(=O)Nc2ccc(N3CCOCC3)cc2)n1 | 8.27 | –
69 | COc1ccc(/C=N/NC(=O)COc2ccc(Cl)cc2Cl)cc1Cn1nc(C)cc1C | – | inactive
70 | CCOC(=O)C1=C(C)N=c2s/c(=C/c3ccc(OCC(=O)O)cc3)c(=O)n2C1c1cc(OC)c(OC)c(OC)c1 (stereo not drawn) | – | inactive
71 | Cc1ccc2nc(-c3ccc(NC(=S)NC4CC(C)(C)NC(C)(C)C4)cc3)sc2c1 | – | inactive
72 | CCCCn1c(N)c(N(Cc2ccccc2OC)C(=O)c2sccc2C)c(=O)[nH]c1=O | – | inactive

Row | SMILES | AC50 [µM] | activity change, negative = inhibition
73 | Cc1ccccc1C(=O)NC(NC(=S)Nc1ccc(S(N)(=O)=O)cc1)C(Cl)(Cl)Cl (stereo not drawn) | – | inactive
74 | O=C(Nc1ccc(F)cc1F)N1CCCC(c2nc(-c3ccc(F)cc3)no2)C1 (stereo not drawn) | – | inactive
75 | Cc1ccc(C(=O)NCC(=O)OCCOc2ccccc2Cl)cc1 | – | inactive
76 | C=CCOc1ccc(/C(O)=C2\C(=O)C(=O)N(CCOC)C2c2cccnc2)cc1 (stereo not drawn) | – | inactive
77 | Cc1cccc(-n2c(SCC(N)=O)nc3c(c2=O)C2(CCCCC2)Cc2ccccc2-3)c1 | – | inactive
78 | C[C@H]1CC[C@H]2NCCN[C@H]2C1 | – | inactive
79 | COc1ccccc1NC(=O)CSC(N)=O | – | inactive
80 | O=C1/C(=C/c2ccc(F)cc2)SC(=S)N1CC(=O)N1CCCCC1c1cccnc1 (stereo not drawn) | – | inactive
81 | Cc1ccc(NC(=O)c2cc(N3C(=O)C=CC3=O)ccc2N2CCOCC2)cc1 | 7.03 | –
82 | CC(C)CCNC(=O)C1CCN(S(=O)(=O)c2ccc3c(c2)CC(C)N3C(=O)C2CCC2)CC1 (stereo not drawn) | – | inactive
83 | O=C(Nc1ccc(O)c(-c2nc3ccccc3s2)c1)c1cc(=O)c2ccccc2o1 | – | inactive
84 | Cc1cc(C)cc(NC(=O)NC(C)C2CCCO2)c1 (stereo not drawn) | – | inactive
85 | CCn1c(CCn2c3ccccc3c3ccccc32)n[nH]c1=S | – | inactive
86 | CCOc1ccc(N2C(=O)CSC2c2ccncc2)cc1 (stereo not drawn) | – | inactive
87 | Oc1ccccc1CNc1cnc2ccccc2c1 | – | inactive
88 | CCN(CC)C(=S)SSC(=S)N(CC)CC | 3.26 | –
89 | COc1cc(SC#N)ccc1N=Cc1c(C)[nH]n(-c2ccc(C)c(C)c2)c1=O | – | inactive
90 | O=C(CCc1nnc(C2(c3ccc(Cl)cc3)CCC2)o1)NCCCn1cccn1 | – | inactive
91 | COCCNS(=O)(=O)c1ccc2c(c1)C(=NO)c1cc(S(=O)(=O)NCCOC)ccc1-2 | – | inactive
92 | O=C1C(Cl)=C(N2CCOCC2)C(=O)N1c1ccccc1Cl | 14.8 | –
93 | CC1Cc2cc(S(=O)(=O)N3CCC(C(=O)N(C)Cc4ccco4)CC3)ccc2N1C(=O)C1CCC1 (stereo not drawn) | – | inactive
